Values after ≈ are worked out from the molar mass of the structure shown.
Assays:
[1] = relative stability of crystalline forms (turnover experiments); format: physicochemical; conditions: for relative phase stability of the crystalline form: relationship between polymorphs of Compound I
Description: Crystalline Form II was produced by re-crystallization of Form I in isopropyl acetate and heptane 1:1 at room temperature. Form II was characterized using XRPD, ssNMR, DSC, TGA and IR. […] 17 hr, IPAc 60° C. for one day, H2O 60° C. over two weeks, three days, NMP-water 1-1 35° C. over three days.

solubility in water = format: physicochemical; conditions: crystalline forms of Compound I (anhydrous free base)

Compound | relative phase stability of the crystalline form [1] | also measured
CS(=O)(=O)n1cc2c(n1)CN([C@H]1CO[C@H](c3cc(F)ccc3F)[C@@H](N)C1)C2 [Form II, (2R,3S,5R)-2-(2,5-Difluorophenyl)-5-[2-(methylsulfonyl)-2,6-dihydropyrrolo[3,4-c]pyrazol-5(4H)-yl]tetrahydro-2H-pyran-3-amine] |  | conversion of Form II into Form I ([1]; turnover experiments with 50-50 seed: DCM-Heptane 25° C., IPAc 25° C. and 60° C., H2O 60° C., NMP-water 1-1 35° C.): slow but observed in all turnover experiments
CS(=O)(=O)n1cc2c(n1)CN([C@H]1CO[C@H](c3cc(F)ccc3F)[C@@H](N)C1)C2 [Compound I, (2R,3S,5R)-2-(2,5-Difluorophenyl)-5-[2-(methylsulfonyl)-2,6-dihydropyrrolo[3,4-c]pyrazol-5(4H)-yl]tetrahydro-2H-pyran-3-amine] |  | solubility (solubility in water): ~2000 µg/mL (≈ 5.02 mM)
CS(=O)(=O)n1cc2c(n1)CN([C@H]1CO[C@H](c3cc(F)ccc3F)[C@@H](N)C1)C2 [Form III, (2R,3S,5R)-2-(2,5-Difluorophenyl)-5-[2-(methylsulfonyl)-2,6-dihydropyrrolo[3,4-c]pyrazol-5(4H)-yl]tetrahydro-2H-pyran-3-amine] | metastable to Form I and II | 

Further lines, with some results ahead:

relative phase stability of the crystalline form [1] | Compound | also measured
metastable to Form I and II | CS(=O)(=O)n1cc2c(n1)CN([C@H]1CO[C@H](c3cc(F)ccc3F)[C@@H](N)C1)C2 [Form IV, (2R,3S,5R)-2-(2,5-Difluorophenyl)-5-[2-(methylsulfonyl)-2,6-dihydropyrrolo[3,4-c]pyrazol-5(4H)-yl]tetrahydro-2H-pyran-3-amine] | 
most stable phase above 13 °C | CS(=O)(=O)n1cc2c(n1)CN([C@H]1CO[C@H](c3cc(F)ccc3F)[C@@H](N)C1)C2 [Form I, (2R,3S,5R)-2-(2,5-Difluorophenyl)-5-[2-(methylsulfonyl)-2,6-dihydropyrrolo[3,4-c]pyrazol-5(4H)-yl]tetrahydro-2H-pyran-3-amine] | 

— US9181262B2, “Crystalline forms of a dipeptidyl peptidase-IV inhibitors” (Merck Sharp & Dohme Corp, priority 2011, dated 2015)
